Source: patent publication US6403343B2, “Method of producing a taxane-type diterpene and a method of obtaining cultured cells which produce the taxane-type dilterpene at a high rate” (Mitsui Chemicals, Inc., priority 1993, dated 2002)
Where two headings read alike, the source gives them in different places.

Legend:
[1] = system: cultured cells of Taxus baccata LINN; assay: Growth rate and taxane yield, 21-day shake culture of Taxus baccata cells with heavy metal compound, amine, antiethylene agent or Ethrel added; type: cell-based
[2] = system: cultured cells of Taxus baccata LINN; conditions: 2 mM in medium
Description: The procedure of Example 78 was carried out except that the nutrition source was not added midway.

[3] = system: cultured cells of Taxus baccata LINN; conditions: 3 mM in fresh medium, continuous culture
Description: The amount of the taxol contained in the cells and the medium were measured in the same manner as that used in Example 1.

[4] = 2×10^−4 M added 5 times at 4 days' intervals from day 0, total 10^−3 M
[5] = 10^−1 M added at start, 21 days
[6] = 10^−2 M added at start, 21 days
[7] = 10^−3 M added at start, 21 days
[8] = 10^−3 M added on 7th day, 14 more days
[9] = 10^−3 M added on 14th day, 7 more days
[10] = 10^−3 M added on 18th day, 3 more days
[11] = 10^−3 M at start + methyl jasmonate 10^−4 M on 14th day
[12] = 10^−3 M at start + methyl jasmonate 10^−4 M on 14th day, oxygen 10% in the gas phase
[13] = 10^−3 M at start, oxygen 10% in the gas phase
[14] = 10^−4 M added at start, 21 days
[15] = 10^−5 M added at start, 21 days
[16] = 10^−6 M added at start, 21 days
[17] = 10^−7 M added at start, 21 days
[18] = 10^−8 M added at start, 21 days
[19] = 10^−9 M added at start, 21 days
[20] = nutrition source added continuously day 2-14, 21 days
[21] = nutrition source not added midway, 21 days

O=S([O-])([O-])=S.[Ag+].[Ag+] [silver thiosulfate, [Ag(S2O3)2]^3−]
growth rate ([1]; 1 M added at start, 21 days): 1.2 times
total yield of taxane ([1]; 1 M added at start, 21 days): 0.64 mg/L
yield of baccatin III ([1]; 1 M added at start, 21 days): 0.08 mg/L
yield of cephalomannine ([1]; 1 M added at start, 21 days): 0.36 mg/L
yield of taxol ([1]; 1 M added at start, 21 days): 0.20 mg/L
growth rate [1, 4]: 2.4 times
total yield of taxane [1, 4]: 32.36 mg/L
yield of baccatin III [1, 4]: 4.15 mg/L
yield of cephalomannine [1, 4]: 7.27 mg/L
yield of taxol [1, 4]: 20.94 mg/L
growth rate [1, 5]: 1.9 times
total yield of taxane [1, 5]: 3.78 mg/L
yield of baccatin III [1, 5]: 0.26 mg/L
yield of cephalomannine [1, 5]: 2.15 mg/L
yield of taxol [1, 5]: 1.37 mg/L
growth rate [1, 6]: 2.3 times
total yield of taxane [1, 6]: 12.02 mg/L
yield of baccatin III [1, 6]: 0.72 mg/L
yield of cephalomannine [1, 6]: 5.50 mg/L
yield of taxol [1, 6]: 5.80 mg/L
growth rate [1, 7]: 2.7 times
total yield of taxane [1, 7]: 58.99 mg/L
yield of baccatin III [1, 7]: 27.90 mg/L
yield of cephalomannine [1, 7]: 5.96 mg/L
yield of taxol [1, 7]: 25.13 mg/L
growth rate [1, 8]: 2.2 times
total yield of taxane [1, 8]: 27.21 mg/L
yield of baccatin III [1, 8]: 11.71 mg/L
yield of cephalomannine [1, 8]: 4.86 mg/L
yield of taxol [1, 8]: 10.64 mg/L
growth rate [1, 9]: 2.5 times
total yield of taxane [1, 9]: 10.59 mg/L
yield of baccatin III [1, 9]: 2.29 mg/L
yield of cephalomannine [1, 9]: 3.83 mg/L
yield of taxol [1, 9]: 4.47 mg/L
growth rate [1, 10]: 2.9 times
total yield of taxane [1, 10]: 3.27 mg/L
yield of baccatin III [1, 10]: 0.28 mg/L
yield of cephalomannine [1, 10]: 1.44 mg/L
yield of taxol [1, 10]: 1.55 mg/L
growth rate [1, 11]: 2.7 times
total yield of taxane [1, 11]: 71.32 mg/L
yield of baccatin III [1, 11]: 25.14 mg/L
yield of cephalomannine [1, 11]: 12.57 mg/L
yield of taxol [1, 11]: 33.61 mg/L
growth rate [1, 12]: 2.7 times
total yield of taxane [1, 12]: 74.07 mg/L
yield of baccatin III [1, 12]: 27.00 mg/L
yield of cephalomannine [1, 12]: 12.34 mg/L
yield of taxol [1, 12]: 34.73 mg/L
growth rate [1, 13]: 2.7 times
total yield of taxane [1, 13]: 59.34 mg/L
yield of baccatin III [1, 13]: 22.81 mg/L
yield of cephalomannine [1, 13]: 9.08 mg/L
yield of taxol [1, 13]: 27.45 mg/L
growth rate [1, 14]: 2.7 times
total yield of taxane [1, 14]: 27.26 mg/L
yield of baccatin III [1, 14]: 7.62 mg/L
yield of cephalomannine [1, 14]: 5.11 mg/L
yield of taxol [1, 14]: 14.53 mg/L
growth rate [1, 15]: 2.7 times
total yield of taxane [1, 15]: 13.18 mg/L
yield of baccatin III [1, 15]: 1.13 mg/L
yield of cephalomannine [1, 15]: 4.10 mg/L
yield of taxol [1, 15]: 7.95 mg/L
growth rate [1, 16]: 2.6 times
total yield of taxane [1, 16]: 5.72 mg/L
yield of baccatin III [1, 16]: 1.06 mg/L
yield of cephalomannine [1, 16]: 2.86 mg/L
yield of taxol [1, 16]: 1.80 mg/L
growth rate [1, 17]: 2.7 times
total yield of taxane [1, 17]: 4.38 mg/L
yield of baccatin III [1, 17]: 0.34 mg/L
yield of cephalomannine [1, 17]: 2.47 mg/L
yield of taxol [1, 17]: 1.57 mg/L
growth rate [1, 18]: 2.8 times
total yield of taxane [1, 18]: 2.02 mg/L
yield of baccatin III [1, 18]: 0.29 mg/L
yield of cephalomannine [1, 18]: 0.97 mg/L
yield of taxol [1, 18]: 0.76 mg/L
growth rate [1, 19]: 2.7 times
total yield of taxane [1, 19]: 1.09 mg/L
yield of baccatin III [1, 19]: 0.20 mg/L
yield of cephalomannine [1, 19]: 0.56 mg/L
yield of taxol [1, 19]: 0.33 mg/L
yield of cells [2, 20]: 38 g dried weight/l
yield of taxol from cells [2, 20]: 31 mg/L
yield of taxol from medium [2, 20]: 89 mg/L
yield of taxol total [2, 20]: 125 mg/L
yield of cells [2, 21]: 22 g dried weight/l
yield of taxol from cells [2, 21]: 33 mg/L
yield of taxol from medium [2, 21]: 27 mg/L
yield of taxol total [2, 21]: 60 mg/L
productivity of taxol ([3]; stationary state): 8.8 mg/L/day
taxol produced ([3]; stationary state of 60 days): 525 mg
